Patent US5703085A, “Xanthine derivatives” (Kyowa Hakko Kogyo Co., Ltd., priority 1994, dated 1997)
Where two headings read alike, the source gives them in different places.

How the values were obtained:
A2 Receptor = molecular target: T1, A2 Receptor (Rattus norvegicus, UniProt P30543); assay: Adenosine A2 receptor binding test (inhibition of 3H-CGS 21680 binding); conditions: rat corpus striatum, 3H-CGS 21680 4.0 nM
T1 construct: from tissue; host or cells: rat corpus striatum (membrane suspension)
T1 sequence (P30543 whole entry): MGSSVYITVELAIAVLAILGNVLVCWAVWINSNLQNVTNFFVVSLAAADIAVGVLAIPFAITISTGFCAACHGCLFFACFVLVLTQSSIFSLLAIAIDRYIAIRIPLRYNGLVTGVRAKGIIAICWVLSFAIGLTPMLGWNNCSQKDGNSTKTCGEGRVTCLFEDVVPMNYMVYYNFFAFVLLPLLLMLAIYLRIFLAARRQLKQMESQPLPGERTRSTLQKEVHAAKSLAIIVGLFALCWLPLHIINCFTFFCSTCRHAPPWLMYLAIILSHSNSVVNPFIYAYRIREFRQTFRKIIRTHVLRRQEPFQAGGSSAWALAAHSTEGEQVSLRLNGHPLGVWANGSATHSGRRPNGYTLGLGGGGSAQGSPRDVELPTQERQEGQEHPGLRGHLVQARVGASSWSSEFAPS
Procedure: Adenosine Receptor Antagonistic Activity (Adenosine A2 Receptor Binding Test)
The test was conducted according to the method of Bruns et al. [Mol. Pharmacol., 29, 331 (1986)] with slight modification.
Corpus striatum of a rat was suspended in ice-cooled 50 mM Tris (hydroxymethyl) aminomethane hydrochloride (Tris HCl) buffer (pH 7.7) by using Polytron homogenizer (manufactured by Kinematica Co.). The suspension was centrifuged (50,000×g, 10 minutes), and the precipitate was suspended again in the same amount of 50 mM Tris HCl buffer. The suspension was centrifuged under the same conditions, and the final precipitate was suspended in 50 mM Tris HCl buffer [containing 10 mM magnesium chloride and 0.02 unit/mg tissue of adenosine deaminase (manufactured by Sigma Co.)] to give a tissue concentration of 5 mg (wet weight)/ml.
To 1 ml of the tissue suspension thus prepared were added 50 μl of tritium labeled CGS 21680 {^3 H-2-[p-(2-carboxyethyl) phenethylamino]-5'-(N-ethylcarboxamide)-adenosine: 40 Ci/mmol; manufactured by New England Nuclear Co. [J. Pharmacol. Exp. Ther., 251, 888 (1989)]} (final concentration: 4.0 nM) and 50 μl of a test compound. The resulting mixture was allowed to stand at 25° C. for 120 minutes and then rapidly filtered by suction through a glass fiber filter (GF/C; manufactured by Whatman Co.). The filter was immediately washed three times with 5 ml each of ice-cooled 50 mM Tris HCl buffer, and transferred to a vial, and a scintillator (EX-H; manufactured by Wako Pure Chemical Industries, Ltd.) was added thereto. The radioactivity on the filter was determined with a liquid scintillation counter (manufactured by Packard Instrument Co.).
The inhibition rate of the test compound against the binding of A2 receptors (^3 H-CGS 21680 binding) was calculated by the following equation: [formula] [Notes]B: Amount of the binding in the presence of the test compound.
T: Amount of the total binding.
N: Amount of the nonspecific binding.
Amount of the total binding means the amount of radioactivity of ^3 H-CGS 21680 bound in the absence of the test compound. Amount of the nonspecific binding means the amount of radioactivity of ^3 H-CGS 21680 bound in the presence of 100 μM cyclopentyladenosine (CPA; manufactured by Sigma Co.). Amount of the binding in the presence of the test compound means the amount of radioactivity of ^3 H-CGS 21680 bound in the presence of the test compound at various levels of concentrations.

[1] = Effect on haloperidol-induced catalepsy; assay type: in vivo, male ddY mice; conditions: 10 mg/kg po; for Total Score (catalepsy): 1 h after compound; for inhibition in vivo at 10 mg/kg: Mus musculus, 1 h, decrease in total score vs control group, read-out: Remission Rate (%)
Procedure: Effect on Haloperidol-Induced Catalepsy
Parkinson's disease is a clinical syndrome caused by degeneration and cell death of nigrostriatal dopaminergic neurons. Administration of haloperidol (dopamine D1 /D2 antagonist) induces catalepsy resulting from the blockade of postsynaptic dopamine D2 receptors.
The experiment was carried out using several groups of 5-week-old male ddY mice (weighing 22 to 24 g, Japan SLC), each group consisting of 5 or 10 mice. Haloperidol (manufactured by Janssen Pharmaceutica) was suspended in 0.3% CMC and imtraperitoneally administered to each mouse at a dose of 1.0 mg/kg. A test compound was suspended in injectable distilled water (manufactured by Otsuka Pharmaceutical Co., Ltd.) after adding Tween 80 [polyoxyethylene (20) sorbitan monooleate]. L-DOPA (manufactured by Kyowa Hakko Kogyo Co., Ltd.) and benserazide hydrochloride (manufactured by Kyowa Hakko Kogyo Co., Ltd.) were suspended in 0.3% CMC. One hour after the intraperitoneal administration of haloperidol, the suspension containing the test compound or the suspension containing no test compound [injectable distilled water (manufactured by Otsuka Pharmaceutical Co., Ltd.) containing Tween 80; control] were orally administered to the separate groups of the mice (0.1 ml per 10 g of body weight). One hour after the administration of the test compound, the forelimbs of each mouse and subsequently the hindlimbs of the same mouse were placed on a 4.5 cm-high, 1.0 cm-wide bar and catalepsy was estimated. All of the test compounds were orally administered at a dose of 10 mg/kg, and L-DOPA (100 mg/kg) and benserazide (25 mg/kg) were intraperitoneally administered together as a control. The catalepsy score and the standard of judgment are shown below. […]
Score Duration of the category
0: forelimbs less than 5 seconds
hindlimbs less than 5 seconds
1: forelimbs from 5 (inclusive)
to 10 (exclusive) seconds
2: forelimbs 10 seconds or more
3: (1) forelimbs from 5 (inclusive)
hindlimbs from 5 (inclusive)
or (2) forelimbs less than 5 seconds
hindlimbs 5 seconds or more
4: (1) forelimbs 10 seconds or more
or (2) forelimbs from 5 (inclusive)
hindlimbs 10 seconds or more
5: forelimbs 10 seconds or more
The effect of the compounds was evaluated by the total of the catalepsy scores of 5 or 10 mice in each group (25 or 50 points at the maximum). The groups wherein the total score was not more than 20 or 40 points were estimated to be effective. The number of the animals showing remission against catalepsy is the number of the mice for which the catalepsy score was not more than 4 points in 5 or 10 mice.

[2] = Effect on clonidine-induced aggressive behavior; assay type: in vivo, male ddY mice; conditions: 2.5 mg/kg, po, clonidine 20 mg/kg ip; for Number of the Biting Attacks (mean ± S.E.M.), Test Compound-Treated Group: 30 min count
Procedure: Effect on Clonidine-Induced Aggressive Behavior
The enhancement effect of the test compounds on the aggressive behavior induced by intraperitoneal administration of clonidine [Eur. J. Pharmacol., 29, 374 (1968)] was investigated.
The experiment was performed using several groups of male ddY mice weighing 20 to 25 g (Japan SLC), each group consisting of two mice. A test compound was suspended in injectable distilled water (manufactured by Otsuka Pharmaceutical Co., Ltd.) after adding Tween 80. Clonidine hydrochloride (manufactured by Sigma Co.) was dissolved in physiological saline solution (manufactured by Otsuka Pharmaceutical Co., Ltd.). The suspension containing the test compound and the suspension containing no test compound (control) were orally administered to the separate groups of the mice (0.1 ml per 10 g of body weight). Sixty minutes after the oral administration of the test compound, clonidine hydrochloride (20 mg/kg) was intraperitoneally administered. The number of biting attacks during the 30 minutes immediately after the clonidine treatment was counted. The effect of the compounds was evaluated by comparing the number of biting attacks of the test compound-administered groups with that of control groups (significance test: Student' t-test).

[3] = 5 mice (max 25 points; control 25)
[4] = out of 5 mice (score not more than 4)
[5] = out of 10 mice (score not more than 4)

Row | Compound | A2 Receptor Inhibition Rate (%) (A2 Receptor; 10^-6 M) | A2 Receptor Inhibition Rate (%) (A2 Receptor; 10^-7 M) | also measured
1 | CCCn1c(=O)c2c(nc(/C=C/c3ccc(OC(C)=O)c(OC(C)=O)c3)n2C)n(CCC)c1=O [Compound 1, (E)-8-(3,4-Diacetoxystyryl)-7-methyl-1,3-dipropylxanthine] | 93 | 89 | –
2 | CCCn1c(=O)c2c(nc(/C=C/c3ccc(OC)c(OC(C)=O)c3)n2C)n(CCC)c1=O [Compound 3, (E)-8-(3-Acetoxy-4-methoxystyryl)-7-methyl-1,3-dipropylxanthine] | 96 | 61 | –
3 | CCCn1c(=O)c2c(nc(/C=C/c3ccc(OC(C)=O)c(OC)c3)n2C)n(CCC)c1=O [Compound 4, (E)-8-(4-Acetoxy-3-methoxystyryl)-7-methyl-1,3-dipropylxanthine] | 98 | 94 | Total Score (catalepsy) [1, 3]: 3; Number of Animals Showing Remission [1, 4]: 5; inhibition in vivo at 10 mg/kg ([1]; 5 mice): 88%; Ratio of Attacks: Test Compd.-Treated Group/Control Group [2]: 11.0; Number of the Biting Attacks (mean ± S.E.M.), Test Compound-Treated Group [2]: 47.4 ± 11.1
4 | CCn1c(=O)c2c(nc(/C=C/c3ccc(OC(=O)c4ccccc4)c(OC)c3)n2C)n(CC)c1=O [Compound 7, (E)-8-(4-Benzoyloxy-3-methoxystyryl)-1,3-diethyl-7-methylxanthine] | 97 | 87 | Total Score (catalepsy) [1, 3]: 14; Number of Animals Showing Remission [1, 4]: 3; inhibition in vivo at 10 mg/kg ([1]; 5 mice): 44%
5 | CCCn1c(=O)c2c(nc(/C=C/c3cc(OC(C)=O)cc(OC(C)=O)c3)n2C)n(CCC)c1=O [Compound 9, (E)-8-(3,5-Diacetoxystyryl)-7-methyl-1,3-dipropylxanthine] | 96 | 88 | –
6 | CCn1c(=O)c2c(nc(/C=C/c3ccc(OC(=O)C(C)(C)C)c(OC)c3)n2C)n(CC)c1=O [Compound 13, (E)-1,3-Diethyl-8-(3-methoxy-4-pivaloyloxystyryl)-7-methylxanthine] | – | – | Total Score (catalepsy) ([1]; 10 mice (max 50 points)): 14; Number of Animals Showing Remission [1, 5]: 9; inhibition in vivo at 10 mg/kg ([1]; 10 mice): 72%; Ratio of Attacks: Test Compd.-Treated Group/Control Group [2]: 10.1; Number of the Biting Attacks (mean ± S.E.M.), Test Compound-Treated Group [2]: 24.3 ± 6.6
7 | C=CCn1c(=O)c2c(nc(/C=C/c3ccc(OC(C)=O)c(OC)c3)n2C)n(CC=C)c1=O [Compound 15, (E)-8-(4-Acetoxy-3-methoxystyryl)-1,3-diallyl-7-methylxanthine] | 91 | 85 | –
8 | CCn1c(=O)c2c(nc(/C=C/c3ccc(OC)c(OC(C)=O)c3)n2C)n(CC)c1=O [Compound 16, (E)-8-(3-Acetoxy-4-methoxystyryl)-1,3-diethyl-7-methylxanthine] | 96 | 81 | –
9 | CCn1c(=O)c2c(nc(/C=C/c3cc(OC)c(OC(C)=O)c(OC)c3)n2C)n(CC)c1=O [Compound 17, (E)-8-(4-Acetoxy-3,5-dimethoxystyryl)-1,3-diethyl-7-methylxanthine] | 97 | 80 | Total Score (catalepsy) ([1]; 10 mice (max 50 points)): 30; Number of Animals Showing Remission [1, 5]: 7; inhibition in vivo at 10 mg/kg ([1]; 10 mice): 40%
10 | CCn1c(=O)c2c(nc(/C=C/c3cc(OC)c(OC(=O)c4ccccc4)c(OC)c3)n2C)n(CC)c1=O [Compound 18, (E)-8-(4-Benzoyloxy-3,5-dimethoxystyryl)-1,3-diethyl-7-methylxanthine] | 97 | 82 | Total Score (catalepsy) ([1]; 10 mice (max 50 points)): 30; Number of Animals Showing Remission [1, 5]: 7; inhibition in vivo at 10 mg/kg ([1]; 10 mice): 40%
11 | C=CCn1c(=O)c2c(nc(/C=C/c3cc(OC)c(OC(C)=O)c(OC)c3)n2C)n(CC=C)c1=O [Compound 19, (E)-8-(4-Acetoxy-3,5-dimethoxystyryl)-1,3-diallyl-7-methylxanthine] | 96 | 91 | –
12 | CCn1c(=O)c2c(nc(/C=C/c3cccc(OC(C)=O)c3)n2C)n(CC)c1=O [Compound 21, (E)-8-(3-Acetoxystyryl)-1,3-diethyl-7-methylxanthine] | 96 | 81 | –
13 | CCn1c(=O)c2c(nc(/C=C/c3cccc(OC(=O)c4ccccc4)c3)n2C)n(CC)c1=O [Compound 22, (E)-8-(3-Benzoyloxystyryl)-1,3-diethyl-7-methylxanthine] | 99 | 92 | –
14 | CCn1c(=O)c2c(nc(/C=C/c3cc(OC)ccc3OC(C)=O)n2C)n(CC)c1=O [Compound 23, (E)-8-(2-Acetoxy-5-methoxystyryl)-1,3-diethyl-7-methylxanthine] | 101 | 90 | –
15 | CCn1c(=O)c2c(nc(/C=C/c3cccc(OC)c3OC(C)=O)n2C)n(CC)c1=O [Compound 25, (E)-8-(2-Acetoxy-3-methoxystyryl)-1,3-diethyl-7-methylxanthine] | 101 | 95 | –
16 | CCn1c(=O)c2c(nc(/C=C/c3cccc(OC(C)=O)c3OC(C)=O)n2C)n(CC)c1=O [Compound 26, (E)-8-(2,3-Diacetoxystyryl)-1,3-diethyl-7-methylxanthine] | 101 | 75 | –
